Assay results as given in US12157730B2, “Heteroaryl derivative, method for producing same, and pharmaceutical composition comprising same as effective component” (VORONOI INC., priority 2019, dated 2024).

biological target: T1, Ba/F3 cell EGFR Exon20 ins NPH (Homo sapiens, UniProt P00533, INS773NPH); experiment: Ba/F3 cell proliferation suppression, EGFR Exon20 ins NPH; format: cell-based; details: GI50 class; Ba/F3 cell line with NPH inserted at Exon20 of EGFR; 72 hours
T1 construct: expressed in transfected cells; host or cells: Ba/F3
Method in brief: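 72 h compound exposure, 0.3 nM–50 um (12 points, 3:1 dilution in DMSO); viability by CellTiter-Glo luminescence. Ba/F3 medium: RPMI-1640, 10% FBS, 5 ng/ml IL-3, 1 ug/ml puromycin for transduced cells. GI50 vs control, n=3.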

Ba/F3 (NPH) Activity	Compound
C (500 nM ≤ GI50 < 5000 nM)	C=CC(=O)Nc1cc(Nc2cc(N3OCC[C@@H]3c3ccc(C)nc3)ncn2)c(OC)cc1N1C[C@H]2C[C@@H]1CN2CC [Example 51, N-(2-((1R,4R)-5-ethyl-2,5-diazabicyclo [2.2.1]heptane-2-yl)-4-methoxy-5-((6-((R)-3-(6-methylpyridine-3-yl)isoxazolidine-2-yl)pyrimidine-4-yl)amino)phenyl) acrylamide]
A (GI50 < 50 nM)	C=CC(=O)Nc1cc(Nc2cc(N3OCC[C@@H]3c3cc(F)cc(Cl)c3)ncn2)c(OC)cc1N1CCC(N(C)C)CC1 [compound 627, N-(5-((6-((R)-3-(3-chloro-5-fluorophenyl)isoxazolidine-2-yl)pyrimidine-4-yl)amino)-2-(4-(dimethylamino)piperidine-1-yl)-4-methoxyphenyl) acrylamide]
A (GI50 < 50 nM)	C=CC(=O)Nc1cc(Nc2cc(N3OCC[C@@H]3c3cccc(F)c3F)ncn2)c(OC)cc1N1CCN(C)[C@@H](C)C1 [compound 883, N-(5-((6-((R)-3-(2,3-difluorophenyl)isoxazolidine-2-yl)pyrimidine-4-yl)amino)-2-((S)-3,4-dimethylpiperazine-1-yl)-4-methoxyphenyl) acrylamide]
A (GI50 < 50 nM)	C=CC(=O)Nc1cc(Nc2cc(N3OCC[C@@H]3c3cccc(Cl)c3C)ncn2)c(OC)cc1N1CCC(N2C[C@@H](C)O[C@@H](C)C2)CC1 [compound 528, N-(5-((6-((R)-3-(3-chloro-2-methylphenyl)isoxazolidine-2-yl)pyrimidine-4-yl)amino)-2-(4-((2S,6R)-2,6-dimethylmorpholino)piperidine-1-yl)-4-methoxyphenyl) acrylamide]
B (50 nM ≤ GI50 < 500 nM)	C#Cc1cccc([C@H]2CCON2c2cc(Nc3cc(NC(=O)C=C)c(N4CCN(C5CC5)CC4)cc3OC)ncn2)c1 [compound 654, N-(2-(4-cyclopropylpiperazine-1-yl)-5-((6-((R)-3-(3-ethynylphenyl)isoxazolidine-2-yl)pyrimidine-4-yl)amino)-4-methoxyphenyl) acrylamide]
A (GI50 < 50 nM)	C=CC(=O)Nc1cc(Nc2cc(N3OCC[C@@H]3c3cccc(C)c3F)ncn2)c(OC)cc1N1CCC(N2CCN(C3CCC3)CC2)CC1 [Example 78, N-(2-(4-(4-cyclobutylpiperazine-1-yl)piperidine-1-yl)-5-((6-((R)-3-(2-fluoro-3-methylphenyl)isoxazolidine-2-yl)pyrimidine-4-yl)amino)-4-methoxyphenyl) acrylamide]
B (50 nM ≤ GI50 < 500 nM)	C=CC(=O)Nc1cc(Nc2cc(N3OCC[C@@H]3c3ccc(Cl)c(Cl)c3F)ncn2)c(OC)cc1N1CCC(N2CCN(C(C)=O)CC2)CC1 [compound 774, N-(2-(4-(4-acetylpiperazine-1-yl)piperidine-1-yl)-5-((6-((R)-3-(3,4-dichloro-2-fluorophenyl)isoxazolidine-2-yl)pyrimidine-4-yl)amino)-4-methoxyphenyl) acrylamide]
A (GI50 < 50 nM)	C=CC(=O)Nc1cc(Nc2cc(N3OCC[C@@H]3c3ccc(Cl)cc3F)ncn2)c(OC)cc1N1CCN(C)CC1 [compound 372, N-(5-((6-((R)-3-(4-chloro-2-fluorophenyl)isoxazolidine-2-yl)pyrimidine-4-yl)amino)-4-methoxy-2-(4-methylpiperazine-1-yl)phenyl)acrylamide]
A (GI50 < 50 nM)	C=CC(=O)Nc1cc(Nc2cc(N3OCC[C@@H]3c3cccc(F)c3Cl)ncn2)c(OC)cc1N1CCC(N2CCN(C3CC3)C[C@H]2C)CC1 [Example 143, N-(5-((6-((R)-3-(2-chloro-3-fluorophenyl)isoxazolidine-2-yl)pyrimidine-4-yl)amino)-2-(4-((R)-4-cyclopropyl-2-methylpiperazine-1-yl)piperidine-1-yl)-4-methoxyphenyl) acrylamide]
A (GI50 < 50 nM)	C=CC(=O)Nc1cc(Nc2cc(N3OCC[C@@H]3c3ccc(C)nc3)ncn2)c(OC)cc1N1CCC(N2C[C@@H]3C[C@H]2CO3)CC1 [Example 228, N-(2-(4-((1S,4S)-2-oxa-5-azabicyclo[2.2.1]heptane-5-yl)piperidine-1-yl)-4-methoxy-5-((6-((R)-3-(6-methylpyridine-3-yl)isoxazolidine-2-yl)pyrimidine-4-yl)amino)phenyl)acrylamide]
A (GI50 < 50 nM)	C=CC(=O)Nc1cc(Nc2cc(N3OCC[C@@H]3c3cc(F)cc(Cl)c3)ncn2)c(OC)cc1N1CCC(N2C[C@@H]3CCN(C)[C@@H]3C2)CC1 [compound 540, N-(5-((6-((R)-3-(3-chloro-5-fluorophenyl)isoxazolidine-2-yl)pyrimidine-4-yl)amino)-4-methoxy-2-(4-((3aS,6aS)-1-methylhexahydropyrrolo [3,4-b]pyrrole-5(1H)-yl)piperidine-1-yl)phenyl)acrylamide]
A (GI50 < 50 nM)	C=CC(=O)Nc1cc(Nc2cc(N3OCC[C@@H]3c3cccc(F)c3F)ncn2)c(OC)cc1N1CCC(N2CCN(C3CC3)CC2)CC1 [Example 127, N-(2-(4-(4-cyclopropylpiperazine-1-yl)piperidine-1-yl)-5-((6-((R)-3-(2,3-difluorophenyl)isoxazolidine-2-yl)pyrimidine-4-yl)amino)-4-methoxyphenyl) acrylamide]
A (GI50 < 50 nM)	C=CC(=O)Nc1cc(Nc2cc(N3OCC[C@@H]3c3ccc(F)c(F)c3)ncn2)c(OC)cc1N1CCC(N2CCOCC2)CC1 [compound 503, N-(5-((6-((R)-3-(3,4-difluorophenyl)isoxazolidine-2-yl)pyrimidine-4-yl)amino)-4-methoxy-2-(4-morpholinopiperidine-1-yl)phenyl)acrylamide]
A (GI50 < 50 nM)	C=CC(=O)Nc1cc(Nc2cc(N3OCC[C@@H]3c3ccc(Cl)c(Cl)c3F)ncn2)c(OC)cc1N1CCC(N2C[C@H]3C[C@@H]2CO3)CC1 [Example 268, N-(2-(4-((1R,4R)-2-oxa-5-azabicyclo[2.2.1]heptane-5-yl)piperidine-1-yl)-5-((6-((R)-3-(3,4-dichloro-2-fluorophenyl)isoxazolidine-2-yl)pyrimidine-4-yl)amino)-4-methoxyphenyl) acrylamide]
A (GI50 < 50 nM)	C=CC(=O)Nc1cc(Nc2cc(N3OCC[C@@H]3Cc3cccc(Cl)c3OC)ncn2)c(OC)cc1N1CCN(C2CC2)CC1 [compound 1053, N-(5-((6-((S)-3-(3-chloro-2-methoxybenzyl)isoxazolidine-2-yl)pyrimidine-4-yl)amino)-2-(4-cyclopropylpiperazine-1-yl)-4-methoxyphenyl) acrylamide]
A (GI50 < 50 nM)	C=CC(=O)Nc1cc(Nc2cc(N3OCC[C@@H]3c3ccc(Cl)cc3F)ncn2)c(OC)cc1N1CCC(N2C[C@@H]3C[C@H]2CO3)CC1 [compound 373, N-(2-(4-((1S,4S)-2-oxa-5-azabicyclo[2.2.1]heptane-5-yl)piperidine-1-yl)-5-((6-((R)-3-(4-chloro-2-fluorophenyl)isoxazolidine-2-yl)pyrimidine-4-yl)amino)-4-methoxyphenyl) acrylamide]

Compound	Ba/F3 (NPH) Activity
N-(5-((6-((R)-3-(3,4- difluorophenyl) isoxazolidine-2-yl) pyrimidine-4-yl)amino)- 2-(4-((S)-3- (dimethylamino) pyrolidine-1-yl) piperidine-1-yl)-4- methoxyphenyl) acrylamide [compound 500]	A (GI50 < 50 nM)
